Measurements: US10010534B2, “Intravenous formulation and LC/MS/MS analysis method for GMC1” (THE BOARD OF REGENTS OF THE UNIVERSITY OF TEXAS SYSTEM, priority 2016, dated 2018)
≈ marks a conversion by molar mass, not a printed value. Like-named read-outs stand apart in the source and are kept apart here.

Tests used:
[1] = Short-term (bench-top) stability of GMC1 plasma and urine samples; type: physicochemical, rat; conditions: read-out: Mean Recovery ± SD, short-term stability; for recovery at 2 h: bench-top 2 h; for recovery at 4 h: bench-top 4 h; for recovery at 6 h: bench-top 6 h
Method: The short-term (bench-top) stability of GMC1 plasma and urine samples was evaluated by analyzing three sets each of GMC1 plasma and urine samples freshly prepared and placed on the bench-top for 2, 4, and 6 h, respectively. All the samples were compared with freshly prepared samples of the same concentration.

[2] = Freeze-thaw cycle stability of GMC1 plasma and urine samples; type: physicochemical, rat; conditions: read-out: Mean Recovery ± SD, freeze-thaw cycle stability
Method: The freeze-thaw cycle stability of GMC1 plasma and urine samples was evaluated by comparing QC plasma and urine samples exposed to three cycles of freeze (at −80° C.) and thaw (room temperature) to freshly prepared QC samples at the same concentration. Average recoveries from freeze-thawed plasma samples were 106±5.9%, 98.5±3.7% and 94.1±2.9% for GMC1 concentrations of 10, 200 and 400 ng/mL respectively. Average recovery from urine samples were 113±8.9%, 101±3.9%, and 86.6±7.5% for 10, 200 and 400 ng/mL GMC1 concentrations respectively.

[3] = Processed sample (on-instrument or auto-sampler) stability; type: physicochemical; conditions: rat
Method: The stability of processed samples (on-instrument or auto-sampler stability) was also evaluated by comparing freshly prepared plasma and urine QC samples to samples placed on the auto-sampler for 2, 4, and 6 h respectively. One set of the plasma and urine QC samples was extracted with methanol containing IS, and another set with pure methanol without IS.

[4] = Solubility of GMC1 in selected solvents by the shaker method; type: physicochemical; conditions: thermodynamic from solid, read-out: Mean Solubility ± SD
Method: Solubility information in various solvents is important in developing a suitable intravenous formulation of GMC1 for preclinical and clinical studies. The solubility of GMC1 in water, ethanol, polyethylene glycol 300 and 400, propylene glycol monocapryrate type I (Capyrol 90®), dimethyl sulfoxide (DMSO), dimethyl acetamide (DMA), Tween 80®, Labrasol®, Labrafac®, soybean oil, and oleic acid were determined by the shaker method. Briefly, excess amount of GMC1 was added to each of the selected solvents in a scintillation vial and shook using a reciprocating shaker at room temperature for 72 h. The samples were centrifuged at 14,000 rpm for 10 min and subsequently filtered through a 0.22 μm filtration unit, the resulting filtrate analyzed by LC/MS/MS to determine the GMC1 dissolved in the solvents. The study was conducted in triplicate.

[5] = Water-octanol partition co-efficient (log P), shaker method; type: physicochemical
Method: The water-octanol partition co-efficient (log P) of GMC1, a measure of how hydrophilic (“water-loving”) or hydrophobic (“water-fearing”) GMC1 is, was also evaluated using the shaker method.

[6] = Pharmacokinetic study of the GMC1 co-solvent formulation, IV bolus; type: in vivo, male Sprague Dawley rats; conditions: rat, single 2 mg/kg IV bolus, three compartment model; for half-life / Vd: iv, 2 mg/kg
Method: Pharmacokinetic Studies of the GMC1 Co-Solvent Formulation. Pharmacokinetic study, which elucidates the fate of GMC1 in living systems, was performed. The pharmacokinetic study also verifies the applicability of the LC/MS/MS assay method and the formulation. A rat model was employed and male Sprague Dawley rats were selected as an animal model based on the similarity to humans in metabolism. Four male Sprague Dawley rats (body weight: 300-350 g) were cannulated through the jugular vein under anesthesia (using a cocktail of ketamine:acepromazine:xylazine at a ratio of 50:3.3:3.3 mg/kg). On the following day, the optimal co-solvent formulation of GMC1 (consisting of Labrasol® 50:50 PEG 300, and GMC1 10 mg/mL) was diluted ten times in normal saline to 1 mg/mL. Each rat was administered a 2 mg/kg IV bolus dose of GMC1. Heparinized blood samples were withdrawn from each rat at 5, 10, 15, 30, 60, 120, 240, 480, 720, 1440, 2880, 3240 min after injection. The blood samples were centrifuged at 14,000 rpm for 6 min and the supernatant plasma obtained and stored at −80° C. until analysis. Urine samples were also collected at 0, 60, 240, 480, 720, and 1440 min. The plasma and urine samples were analyzed (within 7 days) using the LC/MS/MS method described herein to obtain the concentration of GMC1.
The pharmacokinetic parameters for each rat were determined with Phoenix WinNonlin 6.3 software (Pharsight Corporation, Mountain View, Calif., USA) using a three compartment, which best described the fit for the IV bolus administration of GMC1, based on the observed and predicted fits of the plasma concentration versus time plot, the reduction in the sums of squares, and the Akaike's information criterion (AIC) for comparing compartmental models (Yamaoka et al., Journal of Pharmacokinetics and Biopharmaceutics 1978, 6(2):165-75). The three-compartment model is described by the equation: Ct=A·e^−αt+B·e^−βt+C·e^−γt where A, B and C are the coefficients, α, β, and γ are alpha, beta and gamma phase rate constants respectively, and Ct is the plasma concentration of GMC1 at time, t.
The weighting scheme of concentration^−2 (Y^−2) was used to determine the model that best fits the individual profiles.

[7] = tested on: 22Rv1 prostate cancer cell; test: 22Rv1 prostate cancer cell proliferation; type: cell-based
[8] = tested on: androgen receptor (AR); conditions: variety of cell lines; cited from earlier work
[9] = tested on: glucocorticoid receptor (GR); conditions: variety of cell lines; cited from earlier work
[10] = processed plasma sample (methanol extract), plasma extracted with methanol containing IS, read-out: Mean Recovery ± SD, auto-sampler stability, With IS
[11] = processed plasma sample (methanol extract), plasma extracted with pure methanol, read-out: Mean Recovery ± SD, auto-sampler stability, No IS
[12] = processed urine sample (methanol extract), urine extracted with methanol containing IS, read-out: Mean Recovery ± SD, auto-sampler stability, With IS
[13] = processed urine sample (methanol extract), urine extracted with pure methanol, read-out: Mean Recovery ± SD, auto-sampler stability, No IS

Q: With `COc1ccc(/C=N/NC(=O)CSc2nc3ccccc3[nH]2)cc1` [GMC1] as the compound, how does the recovery at 2 h ([1]; rat plasma) read?
A: 97.4 ± 8.89%

Q: And the recovery at 4 h ([1]; rat plasma)?
A: 88.9 ± 2.63%

Q: And the recovery at 6 h ([1]; rat plasma)?
A: 80.1 ± 5.71%

Q: And the recovery at 2 h ([1]; rat urine)?
A: 94.2 ± 4.66%

Q: What about the recovery at 4 h ([1]; rat urine) of the same compound?
A: 93.9 ± 0.76%

Q: And the recovery at 6 h ([1]; rat urine)?
A: 93.7 ± 1.23%

Q: What about the recovery at 10 ng/mL ([2]; rat plasma, three cycles −80° C./room temperature) of the same compound?
A: 106 ± 5.9%

Q: What about the recovery at 200 ng/mL ([2]; rat plasma, three cycles) of the same compound?
A: 98.5 ± 3.7%

Q: What about the recovery at 400 ng/mL ([2]; rat plasma, three cycles) of the same compound?
A: 94.1 ± 2.9%

Q: What about the recovery at 10 ng/mL ([2]; rat urine, three cycles) of the same compound?
A: 113 ± 8.9%

Q: What about the recovery at 200 ng/mL ([2]; rat urine, three cycles) of the same compound?
A: 101 ± 3.9%

Q: What about the recovery at 400 ng/mL ([2]; rat urine, three cycles) of the same compound?
A: 86.6 ± 7.5%

Q: What about the recovery at 2 h [3, 10] of the same compound?
A: 89.9 ± 4.7%

Q: And the recovery at 4 h [3, 10]?
A: 97.5 ± 1.5%

Q: And the recovery at 6 h [3, 10]?
A: 96.2 ± 5.6%

Q: And the recovery at 2 h [3, 11]?
A: 94.7 ± 7.9%

Q: What about the recovery at 4 h [3, 11] of the same compound?
A: 99.7 ± 4.5%

Q: And the recovery at 6 h [3, 11]?
A: 98.4 ± 6.2%

Q: And the recovery at 2 h [3, 12]?
A: 96.4 ± 2.8%

Q: And the recovery at 4 h [3, 12]?
A: 98.5 ± 1.1%

Q: What about the recovery at 6 h [3, 12] of the same compound?
A: 97.1 ± 4.8%

Q: And the recovery at 2 h [3, 13]?
A: 96.1 ± 2.4%

Q: What about the recovery at 4 h [3, 13] of the same compound?
A: 89.7 ± 8.8%

Q: What about the recovery at 6 h [3, 13] of the same compound?
A: 95.2 ± 2.2%

Q: And the solubility at 72 h ([4]; DMSO, organic solvent or mixture, DMSO, room temperature)?
A: ≥ 100 mg/mL

Q: And the solubility at 72 h ([4]; Labrafac, oil or lipid, Labrafac, room temperature)?
A: 1.2 ± 0.01 mg/mL (≈ 3.53 mM)

Q: What about the solubility at 72 h ([4]; Labrasol, aqueous with cosolvent or surfactant or cyclodextrin, Labrasol, room temperature) of the same compound?
A: 36.4 ± 2.9 mg/mL (≈ 107 mM)

Q: What about the solubility at 72 h ([4]; PEG 300, organic solvent or mixture, PEG 300, room temperature) of the same compound?
A: 36.6 ± 1.12 mg/mL (≈ 108 mM)

Q: What about the solubility at 72 h ([4]; PEG 400, organic solvent or mixture, PEG 400, room temperature) of the same compound?
A: 35.7 ± 1.41 mg/mL (≈ 105 mM)

Q: What about the solubility at 72 h ([4]; Tween 80, aqueous with cosolvent or surfactant or cyclodextrin, Tween 80, room temperature) of the same compound?
A: 20.3 ± 5.39 mg/mL (≈ 59.6 mM)

Q: And the solubility at 72 h ([4]; dimethyl acetamide, organic solvent or mixture, Dimethyl acetamide, room temperature)?
A: ≥ 100 mg/mL

Q: And the solubility at 72 h ([4]; ethanol, organic solvent or mixture, Ethanol, room temperature)?
A: 6.3 ± 0.29 mg/mL (≈ 18.5 mM)

Q: And the solubility at 72 h ([4]; oleic acid, oil or lipid, Oleic Acid, room temperature)?
A: 2.2 ± 0.02 mg/mL (≈ 6.46 mM)

Q: What about the solubility at 72 h ([4]; soybean oil, oil or lipid, Soy bean oil, room temperature) of the same compound?
A: 1.1 ± 0.02 mg/mL (≈ 3.23 mM)

Q: What about the logP [5] of the same compound?
A: 3.48 ± 0.03

Q: And the AUC(0-inf) ([6]; male, Sprague Dawley, plasma)?
A: 3900 ng·h/mL

Q: And the Cmax ([6]; male, Sprague Dawley, plasma)?
A: 7640 ± 1980 ng/mL

Q: What about the clearance ([6]; male, Sprague Dawley, plasma, read-out: Cl (total body clearance)) of the same compound?
A: 8.9 ± 1.66 mL/min/kg

Q: What about the half-life ([6]; male, Sprague Dawley, plasma, read-out: T1/2α (distribution half-life of α-phase)) of the same compound?
A: 0.11 ± 0.036 h

Q: What about the half-life ([6]; male, Sprague Dawley, plasma, read-out: T1/2β (elimination half-life of β-phase)) of the same compound?
A: 1.23 ± 0.42 h

Q: What about the half-life ([6]; male, Sprague Dawley, plasma, read-out: T1/2γ (elimination half-life of γ-phase)) of the same compound?
A: 19.7 ± 5.09 h

Q: What about the Vd ([6]; male, Sprague Dawley, plasma, read-out: V1 (volume of distribution of central compartment)) of the same compound?
A: 0.278 ± 0.0642 L/kg

Q: What about the Vd ([6]; male, Sprague Dawley, plasma, read-out: Vss (volume of distribution at steady state)) of the same compound?
A: 7.73 ± 1.22 L/kg

Q: What about the “A (coefficient of α-phase)” value [6] of the same compound?
A: 6528.9 ± 1996.01 ng/mL

Q: What about the “B (coefficient of β-phase)” value [6] of the same compound?
A: 1038.5 ± 546.09 ng/mL

Q: What about the “C (coefficient of γ-phase)” value [6] of the same compound?
A: 75.1 ± 20.24 ng/mL

Q: What about the “V2 (volume of distribution of first peripheral compartment)” value [6] of the same compound?
A: 0.5595 ± 0.20603 L/kg

Q: And the “V3 (volume of distribution of second peripheral compartment)” value [6]?
A: 6.8665 ± 1.11754 L/kg

Q: And the “concentration range inhibiting cell proliferation” value [7]?
A: low micromolar

Q: What about the “concentration range inhibiting receptor activity” value [8] of the same compound?
A: low to mid micro-molar

Q: And the “concentration range inhibiting receptor activity” value [9]?
A: low to mid micro-molar
